Consider 20 molecules from patent publication US9499537B2, “Antiviral pyrrolopyridine derivatives and method for preparing the same” (KOREA RESEARCH INSTITUTE OF CHEMICAL TECHNOLOGY, priority 2011, dated 2016).

Molecules are shown by their SMILES.

The series has as its system MT-4 cells. In words: Cytotoxicity test in MT-4 cells (MTT method). In kind it is cell-based. Conditions: human. How it is done: In order to look into the HIV-1 inhibition effects of the compound of the present invention, an in vitro test for HIV-1 inhibition effects was carried out as follows according to a known method (H. Tanaka et al., J. Med. Chem., 1991, 34, 349). MT-4 cells were used as host cells, and the degree of the compound of the present invention inhibiting the cytotoxicity of the virus-infected MT-4 cells was investigated.
First, MT-4 cells were diffused at a concentration of 1×10^4 cell/well to a culture medium, and HIV-1 was inoculated so that the concentration was 500 TCI50 (concentration at which 50% of the cell is infected)/well. Immediately after the inoculation, the cell dispersion was transferred in 100 μL each to a flat microtiter plate in which the sample of the compound of the present invention was placed. The sample was incubated for approximately for 4 to 5 days at […], and the virus suppression effect was determined using an MTT method. In addition, the cytotoxicity was also determined by measuring the survivability of the experimentally virus-infected cells using an MTT method. As a comparative compound, azidothymidine (AZT) and raltegravir were used.
In general terms: Tetrazolium assays rely on reduction of a dye to a coloured formazan, in cell work by metabolically active cells.

Turning to `Cc1nc2c(c(C)c(C)n2CC2CC2)c(-c2ccc(Cl)cc2)c1[C@@H](OC(C)(C)C)C(=O)O` [Example 29, (R)-2-tert-butoxy-2-(4-(4-chlorophenyl)-1-(cyclopropylmethyl)-2,3,6-trimethyl-1H-pyrrolo[2,3-b]pyridin-5-yl)acetic acid], the “CC60 (μM) ** : concentration at 50% cell damage with respect to MT-4 cells” value was found to be 100 µM.

On to `Cc1nc2c(c(C)c(C)n2CCC#N)c(-c2ccc(Cl)cc2)c1[C@H](OC(C)(C)C)C(=O)O` [Example 30, (S)-2-Tert-butoxy-2-(4-(4-chlorophenyl)-1-(2-cyanoethyl)-2,3,6-trimethyl-1H-pyrrolo[2,3-b]pyridin-5-yl)acetic acid], for which the “CC60 (μM) ** : concentration at 50% cell damage with respect to MT-4 cells” value was found to be 30.86 µM.

In the case of `Cc1nc2c(c(C)c(C)n2CCC#N)c(-c2ccc(Cl)cc2)c1[C@@H](OC(C)(C)C)C(=O)O` [Example 31, (R)-2-tert-butoxy-2-(4-(4-chlorophenyl)-1-(2-cyanoethyl)-2,3,6-trimethyl-1H-pyrrolo[2,3-b]pyridin-5-yl)acetic acid], the “CC60 (μM) ** : concentration at 50% cell damage with respect to MT-4 cells” value was 86.73 µM.

With `CCn1c(C)c(C)c2c(-c3ccc(Cl)cc3)c([C@H](OC(C)(C)C)C(=O)O)c(C)nc21` [Example 32, (S)-2-Tert-butoxy-2-(4-(4-chlorophenyl)-1-(ethyl)-2,3,6-trimethyl-1H-pyrrolo[2,3-b]pyridin-5-yl)acetic acid], the “CC60 (μM) ** : concentration at 50% cell damage with respect to MT-4 cells” value is 23.48 µM.

Consider `CCn1c(C)c(C)c2c(-c3ccc(Cl)cc3)c([C@@H](OC(C)(C)C)C(=O)O)c(C)nc21` [Example 33, (R)-2-tert-butoxy-2-(4-(4-chlorophenyl)-1-(ethyl)-2,3,6-trimethyl-1H-pyrrolo[2,3-b]pyridin-5-yl)acetic acid], for which the “CC60 (μM) ** : concentration at 50% cell damage with respect to MT-4 cells” value came to 25.5 µM.

As for `Cc1nc2c(ccn2C)c(-c2ccc(Cl)cc2)c1[C@H](OC(C)(C)C)C(=O)O` [Example 34, (S)-2-Tert-butoxy-2-(4-(4-chlorophenyl)-1,6-dimethyl-1H-pyrrolo[2,3-b]pyridin-5-yl)acetic acid], the “CC60 (μM) ** : concentration at 50% cell damage with respect to MT-4 cells” value came out at 78 µM.

For the molecule `COc1cc(Cn2c(C)c(C)c3c(-c4ccc(Cl)cc4)c(C(OC(C)(C)C)C(=O)O)c(C)nc32)cc(Cl)n1` (centres unmarked) [Example 35, 2-Tert-butoxy-2-(4-(4-chlorophenyl)-1-((2-chloro-6-methoxypyridin-4-yl)methyl)-2,3,6-trimethyl-1H-pyrrolo[2,3-b]pyridin-5-yl)acetic acid], the “CC60 (μM) ** : concentration at 50% cell damage with respect to MT-4 cells” value came to 14.86 µM.

Take `Cc1nc2c(c(C)c(C)n2Cc2ccncc2)c(-c2ccc(Cl)cc2)c1[C@H](OC(C)(C)C)C(=O)O` [Example 36, (S)-2-Tert-butoxy-2-(4-(4-chlorophenyl)-1-(pyridin-4-ylmethyl)-2,3,6-trimethyl-1H-pyrrolo[2,3-b]pyridin-5-yl)acetic acid]: the “CC60 (μM) ** : concentration at 50% cell damage with respect to MT-4 cells” value turned out to be 24.49 µM.

Consider `CCn1c(C)c(C)c2c(-c3ccccc3)c(C(OC(C)(C)C)C(=O)O)c(C)nc21` (centres unmarked) [Example 37, 2-Tert-butoxy-2-(1-ethyl-2,3,6-trimethyl-4-phenyl-1H-pyrrolo[2,3-b]pyridin-5-yl)acetic acid], for which the “CC60 (μM) ** : concentration at 50% cell damage with respect to MT-4 cells” value was 17 µM.

Take `CCn1c(C)c(C)c2c(-c3ccc(C)cc3)c(C(OC(C)(C)C)C(=O)O)c(C)nc21` (centres unmarked) [Example 38, 2-Tert-butoxy-2-(1-ethyl-2,3,6-trimethyl-4-(para-tolyl)-1H-pyrrolo[2,3-b]pyridin-5-yl)acetic acid]: the “CC60 (μM) ** : concentration at 50% cell damage with respect to MT-4 cells” value was determined as 40.34 µM.

As for `CCn1c(C)c(C)c2c(-c3ccc(F)cc3)c(C(OC(C)(C)C)C(=O)O)c(C)nc21` (centres unmarked) [Example 39, 2-Tert-butoxy-2-(1-ethyl-4-(4-fluorophenyl)-2,3,6-trimethyl-1H-pyrrolo[2,3-b]pyridin-5-yl)acetic acid], the “CC60 (μM) ** : concentration at 50% cell damage with respect to MT-4 cells” value was 78.47 µM.

For the molecule `CCn1c(C)c(C)c2c(-c3ccc(C#N)cc3)c(C(OC(C)(C)C)C(=O)O)c(C)nc21` (centres unmarked) [Example 40, 2-Tert-butoxy-2-(4-(4-cyanophenyl)-1-ethyl-2,3,6-trimethyl-1H-pyrrolo[2,3-b]pyridin-5-yl)acetic acid], the “CC60 (μM) ** : concentration at 50% cell damage with respect to MT-4 cells” value is 91.58 µM.

For `CCn1c(C)c(C)c2c(-c3ccc(OC)cc3)c(C(OC(C)(C)C)C(=O)O)c(C)nc21` (centres unmarked) [Example 41, 2-(Tert-butoxy)-2-(1-ethyl-4-(4-methoxyphenyl)-2,3,6-trimethyl-1H-pyrrolo[2,3-b]pyridin-5-yl)acetic acid], the “CC60 (μM) ** : concentration at 50% cell damage with respect to MT-4 cells” value came to 31.49 µM.

Consider `Cc1nc2c(c(C)c(C)n2Cc2cccs2)c(-c2ccc(Cl)cc2)c1[C@H](OC(C)(C)C)C(=O)O` [Example 42, (S)-2-(Tert-butoxy)-2-(4-(4-chlorophenyl)-2,3,6-trimethyl-1-(thiophen-2-ylmethyl)-1H-pyrrolo[2,3-b]pyridin-5-yl)acetic acid], for which the “CC60 (μM) ** : concentration at 50% cell damage with respect to MT-4 cells” value worked out at 20.54 µM.

For `Cc1nc2c(c(C)c(C)n2Cc2ccsc2)c(-c2ccc(Cl)cc2)c1[C@H](OC(C)(C)C)C(=O)O` [Example 43, (S)-2-(Tert-butoxy)-2-(4-(4-chlorophenyl)-2,3,6-trimethyl-1-(thiophen-3-ylmethyl)-1H-pyrrolo[2,3-b]pyridin-5-yl)acetic acid], the “CC60 (μM) ** : concentration at 50% cell damage with respect to MT-4 cells” value was found to be 17.74 µM.

Turning to `Cc1nc2c(c(C)c(C)n2Cc2ccco2)c(-c2ccc(Cl)cc2)c1[C@H](OC(C)(C)C)C(=O)O` [Example 44, (S)-2-(Tert-butoxy)-2-(4-(4-chlorophenyl)-1-(furan-2-ylmethyl)-2,3,6-trimethyl-1H-pyrrolo[2,3-b]pyridin-5-yl)acetic acid], the “CC60 (μM) ** : concentration at 50% cell damage with respect to MT-4 cells” value is 18.06 µM.

Consider `Cc1nc2c(c(C)c(C)n2CC2(C#N)CC2)c(-c2ccc(Cl)cc2)c1[C@H](OC(C)(C)C)C(=O)O` [Example 47, (S)-2-(tert-butoxy)-2-(4-(4-chlorophenyl)-1-((1-cyanocyclopropyl)methyl)-2,3,6-trimethyl-1H-pyrrolo[2,3-b]pyridin-5-yl)acetic acid], for which the “CC60 (μM) ** : concentration at 50% cell damage with respect to MT-4 cells” value is 16.64 µM.

With `Cc1nc2c(c(C)c(C)n2CC2CCC2)c(-c2ccc(Cl)cc2)c1[C@H](OC(C)(C)C)C(=O)O` [Example 48, (S)-2-(Tert-butoxy)-2-(4-(4-chlorophenyl)-1-(cyclobutylmethyl)-2,3,6-trimethyl-1H-pyrrolo[2,3-b]pyridin-5-yl)acetic acid], the “CC60 (μM) ** : concentration at 50% cell damage with respect to MT-4 cells” value turned out to be 14.22 µM.

As to `Cc1nc2c(c(C)c(C)n2CC2CCCC2)c(-c2ccc(Cl)cc2)c1[C@H](OC(C)(C)C)C(=O)O` [Example 49, (S)-2-(Tert-butoxy)-2-(4-(4-chlorophenyl)-1-(cyclopentylmethyl)-2,3,6-trimethyl-1H-pyrrolo[2,3-b]pyridin-5-yl)acetic acid], the “CC60 (μM) ** : concentration at 50% cell damage with respect to MT-4 cells” value is 15.3 µM.

Turning to `Cc1nc2c(c(C)c(C)n2CC2CCCCC2)c(-c2ccc(Cl)cc2)c1[C@H](OC(C)(C)C)C(=O)O` [Example 50, (S)-2-(Tert-butoxy)-2-(4-(4-chlorophenyl)-1-(cyclohexylmethyl)-2,3,6-trimethyl-1H-pyrrolo[2,3-b]pyridin-5-yl)acetic acid], the “CC60 (μM) ** : concentration at 50% cell damage with respect to MT-4 cells” value worked out at 10.32 µM.
